Source: patent US20040077602A1, “Mixture composition for controlling ectoparasites” (Meiji Seika Kaisha, Ltd., priority 2002, published 2004)

System: Dermanyssus gallinae
Test: Miticidal effect against Dermanyssus gallinae (Pasteur pipette residual contact test, Test Example 1)
Type: in vivo
Conditions: single agent, sucking adult mites, 25° C.
Source text: Miticidal Effect Against Dermanyssus gallinae
The tip of a Pasteur pipette was sealed with Parafilm, and a sample compound diluted with acetone to a designated concentration was poured into the pipette from its top. The Parafilm in the tip of the pipette was removed one min after the pouring to discharge the test solution, and the pipette was air dried. Thereafter, an absorbent cotton was inserted into the upper end of the pipette, and sucking adult mites of Dermanyssus gallinae were released in the pipette. The tip of the pipette was sealed with Hematoseal, and the pipette was then placed in a desiccator containing a saturated ammonium sulfate solution in its bottom and was stored under fully darkened conditions at 25° C. The mites were observed under a stereomicroscope 4 hr after and 24 hr after the treatment to judge whether the mites were dead or survived, followed by determination of the miticidal rate (%).

| SMILES | Miticidal rate 4 hr after treatment (50 ppm) [%] | Miticidal rate 24 hr after treatment (50 ppm) [%] | Miticidal rate 4 hr after treatment (5 ppm) [%] | Miticidal rate 24 hr after treatment (5 ppm) [%] |
| --- | --- | --- | --- | --- |
| CC1(C)C(C=C(Cl)Cl)C1C(=O)OC(C#N)c1ccc(F)c(Oc2ccccc2)c1 (stereo not shown) [Cyfluthrin, cyfluthrin] | 0 | 0 | – | – |
| CCc1nc2ccc(F)c(F)c2c(OC(=O)C2CC2)c1C [Compound 2, 2-ethyl-3-methyl-4-cyclopropanecarbonyloxy-5,6-difluoroquinoline] | – | – | 40 | 50 |
| CC1(C)C(C=C(Cl)c2ccc(Cl)cc2)C1C(=O)OC(C#N)c1ccc(F)c(Oc2ccccc2)c1 (stereo not shown) [Flumethrin, flumethrin] | 5 | 10 | – | – |
| CC1(C)C(C=C(Cl)Cl)C1C(=O)OCc1cccc(Oc2ccccc2)c1 (stereo not shown) [Permethrin, permethrin] | 0 | 0 | – | – |
| COC(=O)Oc1c(C)c(C)nc2ccc(F)c(F)c12 [Compound 25, 2,3-dimethyl-4-methoxycarbonyloxy-5,6-difluoroquinoline] | – | – | 70 | 80 |
